# Patent US9056056B2, “Processing for dispersing amino acids” (N.V. Nutricia, priority 2007, dated 2015)
# Columns and labels:
# [1] = according to Eisenburg et al., Faraday Symp. Chem. Soc. 17:109-120 (1982); cited from earlier work
# [2] = Wettability (wetting time), method of International IDF Standard 87:1979; type: physicochemical; conditions: for wetting time: amino acid not coated; for effect of coating on the wetting time: FIG. 1, coated versus uncoated amino acid
# Description: The wettability (wetting time) can be determined using the method of International IDF Standard 87:1979.
wetting time [2],effect of coating on the wetting time [2],SMILES,"Hydrophobicity of amino acids (side chain hydrophobicity, SCH) [1]"
–,–,"N[C@@H](Cc1c[nH]c2ccccc12)C(=O)O [Trp, tryptophan]",+1.5 kJ/mol
short wetting time,–,"NCC(=O)O [Gly, glycine]",+0.67 kJ/mol
short wetting time,no or only a minor effect,N[C@@H](Cc1ccc(O)cc1)C(=O)O [Tyr],+0.08 kJ/mol
–,–,"C[C@@H](O)[C@H](N)C(=O)O [Thr, threonine]",-0.179 kcal/mol
–,–,"CC(C)[C@H](N)C(=O)O [Val, valine]",+2.3 kJ/mol
–,–,"CC[C@H](C)[C@H](N)C(=O)O [Ile, isoleucine]",+3.1 kJ/mol
–,–,O=C(O)[C@@H]1CCCN1 [Pro],-0.0693 kcal/mol
–,–,N[C@@H](CO)C(=O)O [Ser],-0.263 kcal/mol
–,–,"CSCC[C@H](N)C(=O)O [Met, methionine]",+1.1 kJ/mol
–,–,N=C(N)NCCC[C@H](N)C(=O)O [Arg],-1.79 kcal/mol
–,–,"NCCCC[C@H](N)C(=O)O [Lys, lysine]",-1.1 kcal/mol
–,–,NC(=O)C[C@H](N)C(=O)O [Asn],-0.645 kcal/mol
short wetting time,no or only a minor effect,C[C@H](N)C(=O)O [Ala],+1.0 kJ/mol
–,–,N[C@@H](CCC(=O)O)C(=O)O [Glu],-0.621 kcal/mol
–,–,"N[C@@H](CS)C(=O)O [Cys, cysteine]",+0.17 kJ/mol
–,–,N[C@@H](Cc1c[nH]cn1)C(=O)O [His],-0.406 kcal/mol
–,–,N[C@@H](CC(=O)O)C(=O)O [Asp],-0.717 kcal/mol
–,–,"N[C@@H](Cc1ccccc1)C(=O)O [Phe, phenylalanine]",+2.5 kJ/mol
